Assay results published in ChEMBL document CHEMBL4043177 (Bioorg Med Chem, 2017).

Tests used:
Homo sapiens [1] = organism: Homo sapiens; assay: Selectivity index, ratio of IC50 for human OX2R expressed in CHO cells to IC50 for human OX1R expressed in CHO cells; type: cell-based
Orexin receptor type 2 = target: T1, Orexin receptor type 2 (Homo sapiens, UniProt O43614); assay: Antagonist activity at human OX2R expressed in CHO cells assessed as reduction in [Ala6,12]orexin-A-induced intracellular Ca2+ mobilization incubated for 30 mins by Fluo-4AM dye based fluorescence assay; type: functional, cell-based
T1 sequence (O43614 whole entry): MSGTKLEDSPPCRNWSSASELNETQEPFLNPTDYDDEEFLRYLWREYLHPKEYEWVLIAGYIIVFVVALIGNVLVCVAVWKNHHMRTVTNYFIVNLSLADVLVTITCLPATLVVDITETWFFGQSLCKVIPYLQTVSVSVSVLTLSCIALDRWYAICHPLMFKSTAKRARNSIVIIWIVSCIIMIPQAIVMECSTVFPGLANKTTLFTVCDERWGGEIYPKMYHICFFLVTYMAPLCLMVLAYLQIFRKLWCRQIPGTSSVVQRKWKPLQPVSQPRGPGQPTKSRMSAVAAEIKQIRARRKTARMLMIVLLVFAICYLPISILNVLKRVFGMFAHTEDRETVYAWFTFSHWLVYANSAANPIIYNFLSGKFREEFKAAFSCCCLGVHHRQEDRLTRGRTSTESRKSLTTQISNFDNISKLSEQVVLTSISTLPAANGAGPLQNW

[2] = target: T2, Orexin/Hypocretin receptor type 1 (Homo sapiens, UniProt O43613); assay: Antagonist activity at human OX1R expressed in CHO cells assessed as reduction in [Ala6,12]orexin-A-induced intracellular Ca2+ mobilization incubated for 30 mins by Fluo-4AM dye based fluorescence assay; type: functional, cell-based
T2 sequence (O43613 whole entry): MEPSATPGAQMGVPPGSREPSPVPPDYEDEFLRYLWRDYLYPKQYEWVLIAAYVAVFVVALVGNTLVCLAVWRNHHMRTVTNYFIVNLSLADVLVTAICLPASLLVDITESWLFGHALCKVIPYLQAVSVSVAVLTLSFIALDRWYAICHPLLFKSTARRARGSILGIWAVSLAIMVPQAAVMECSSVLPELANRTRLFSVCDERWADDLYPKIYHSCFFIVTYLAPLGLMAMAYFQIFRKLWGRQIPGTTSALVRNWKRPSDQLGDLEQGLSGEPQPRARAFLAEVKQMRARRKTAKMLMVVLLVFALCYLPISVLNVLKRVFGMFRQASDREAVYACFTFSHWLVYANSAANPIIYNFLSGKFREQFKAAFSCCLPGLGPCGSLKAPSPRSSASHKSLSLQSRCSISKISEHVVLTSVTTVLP

Homo sapiens [3] = organism: Homo sapiens; assay: Selectivity index, ratio of IC50 for OX2R expressed in CHO cells to IC50 for human OX1R expressed in CHO cells; type: cell-based

Row | Compound | IC50 (Orexin receptor type 2) [nM] | IC50 [2] [nM] | Ratio IC50 (Homo sapiens [1]) | Ratio IC50 (Homo sapiens [3])
1 | Cc1ccc(-n2nccn2)c(C(=O)N(C)[C@H](Cn2ccc(-c3ccc(F)cn3)n2)C(C)C)c1 | 952 | 61.5 | 16 | 
2 | CC[C@@H](Cn1ccc(-c2ccc(F)cn2)n1)N(C)C(=O)c1cc(C)ccc1-n1nccn1 | 29 | 4.39 | 6.6 | 
3 | CCN(C(=O)c1cc(F)ccc1-n1nccn1)[C@@H](C)Cn1nnc(-c2ccc(F)cc2)n1 | 139 | 3.06 | 45 | 
4 | Cc1ccc(-n2nccn2)c(C(=O)N(C)[C@@H](C)Cn2cc(-c3ccc(F)cn3)cn2)c1 | 21.2 | 4.39 | 4.8 | 
5 | CCN(C(=O)c1cc(C)ccc1-c1ncccn1)[C@@H](C)Cn1nnc(-c2ccc(F)cn2)n1 | 129 | 10.6 | 12 | 
6 | Cc1nc2ccc(NC(=O)Nc3ccnc4cccnc34)cc2o1 |  |  |  | 50
7 | CCN(C(=O)c1cc(C)ccc1-n1nccn1)[C@@H](C)Cn1nnc(-c2ccc(F)cn2)n1 | 17.9 | 1.1 | 16 | 
8 | CCN(CCn1ccc(-c2ccc(F)cn2)n1)C(=O)c1cc(C)ccc1-n1nccn1 | 2.81 | 3.22 | 0.87 | 
9 | CCN(C(=O)c1cc(C)ccc1-n1nccn1)[C@@H](C)Cc1noc(-c2ccc(F)cc2)n1 | 2.73 | 1.07 | 2.6 | 
10 | CCN(C(=O)c1cc(C)ccc1-n1nccn1)[C@H](C)Cn1ccc(-c2ccc(F)cn2)n1 | 250 | 86.6 | 2.9 | 
11 | CCN(C(=O)c1cc(F)ccc1-n1nccn1)[C@@H](C)Cn1nnc(-c2ccc(F)cn2)n1 | 471 | 9.45 | 50 | 
12 | Cc1ccc(-n2nccn2)c(C(=O)N[C@@H](C)Cn2cc(-c3ccc(F)cn3)cn2)c1 | 840 | 245 | 3.4 | 
13 | Cc1ccc(-n2nccn2)c(C(=O)N(C)CCn2ccc(-c3ccc(F)cn3)n2)c1 | 11.9 |  | 2.1 | 
14 | CCN(C(=O)c1cc(C)ccc1-n1nccn1)[C@@H](C)Cn1cc(-c2ccc(F)cn2)cn1 | 5.87 | 0.767 | 7.7 | 
15 | Cc1ccc(-n2nccn2)c(C(=O)N[C@@H](C)Cn2ccc(-c3ccc(F)cn3)n2)c1 | 58.4 | 10.1 | 5.8 | 
16 | CCN(C(=O)c1cc(F)ccc1-n1nccn1)[C@@H](C)Cc1noc(-c2ccc(F)cn2)n1 | 887 | 14.7 | 60 | 
17 | CCN(C(=O)c1nc(C)ccc1-n1nccn1)[C@@H](C)Cn1nnc(-c2ccc(F)cc2)n1 | 119 | 1.84 | 65 | 
18 | CCN(C(=O)c1cc(F)ccc1-c1ncccn1)[C@@H](C)Cc1noc(-c2ccc(F)cc2)n1 | 80.1 | 1.58 | 51 | 
19 | CCN(C(=O)c1nc(C)ccc1-c1ncccn1)[C@@H](C)Cc1noc(-c2ccc(F)cc2)n1 | 254 | 3.58 | 71 | 
20 | CCN(C(=O)c1cc(C)ccc1-c1ncccn1)[C@@H](C)Cn1nnc(-c2ccc(F)cc2)n1 | 36 | 1.81 | 20 | 
21 | CCN(C(=O)c1cc(C)ccc1-n1nccn1)[C@@H](C)Cc1noc(-c2ccc(F)cn2)n1 | 11.3 | 1.26 | 9 | 
22 | Cc1ccc(-n2nccn2)c(C(=O)NCCn2cc(-c3ccc(F)cn3)cn2)c1 |  | 908 |  | 
23 | Cc1ccc(-n2nccn2)c(C(=O)N(C)CCn2cc(-c3ccc(F)cn3)cn2)c1 | 51.7 | 56.1 | 0.92 | 
24 | CCN(C(=O)c1nc(C)ccc1-n1nccn1)[C@@H](C)Cc1noc(-c2ccc(F)cc2)n1 | 40.5 | 1.82 | 22 | 

The remaining compounds from weak to strong by IC50 (Orexin receptor type 2), led by results:

Row | IC50 (Orexin receptor type 2) [nM] | IC50 [2] [nM] | Compound | Ratio IC50 (Homo sapiens [1]) | Ratio IC50 (Homo sapiens [3])
25 | 198 | 119 | Cc1ccc(-n2nccn2)c(C(=O)NCCn2ccc(-c3ccc(F)cn3)n2)c1 | 1.7 | 
26 | 61 | 2.45 | CCN(C(=O)c1ccccc1-n1nccn1)[C@@H](C)Cn1nnc(-c2ccc(F)cc2)n1 | 25 | 
27 | 43.2 | 3.24 | CCN(C(=O)c1cc(C)ccc1-c1ncccn1)[C@@H](C)Cc1noc(-c2ccc(F)cn2)n1 | 13 | 
28 | 23.6 | 1.26 | CCN(C(=O)c1cc(F)ccc1-n1nccn1)[C@@H](C)Cc1noc(-c2ccc(F)cc2)n1 | 19 | 
29 | 22.8 | 1.93 | CCN(C(=O)c1cc(C)ccc1-n1nccn1)[C@@H](C)Cn1cc(-c2ccc(F)cn2)nn1 | 12 | 
30 | 14.2 | 9.06 | CCN(CCn1cc(-c2ccc(F)cn2)cn1)C(=O)c1cc(C)ccc1-n1nccn1 | 1.6 | 
31 | 11.6 | 1.25 | CCN(C(=O)c1ccccc1-n1nccn1)[C@@H](C)Cc1noc(-c2ccc(F)cc2)n1 | 9.3 | 
32 | 8.85 |  | CCN(C(=O)c1cc(C)ccc1-c1ncccn1)[C@@H](C)Cc1noc(-c2ccc(F)cc2)n1 | 6.3 | 
33 | 5.68 | 1.9 | Cc1ccc(-n2nccn2)c(C(=O)N(C)[C@@H](C)Cn2ccc(-c3ccc(F)cn3)n2)c1 | 3 | 
34 | 2.57 | 0.82 | CCN(C(=O)c1cc(C)ccc1-n1nccn1)[C@@H](C)Cn1nnc(-c2ccc(F)cc2)n1 | 3.1 | 
35 | 1.61 | 1.62 | CCN(C(=O)c1cc(C)ccc1-n1nccn1)[C@@H](C)Cn1ccc(-c2ccc(F)cn2)n1 | 1 | 
